Target: HK853 (Thermotoga maritima, UniProt Q9WZV7)
Experiment: STD-NMR
Assay type: binding

With `Nc1ncnc2c1ncn2[C@@H]1O[C@H](COP(=O)(O)OP(=O)(O)O)[C@@H](O)[C@H]1O` [ADP] the “f STD ^a” value was 73.3.

Source: article PMC3546527 (MedChemComm, 2012)
